Values quoted from earlier work, collected in US5385907A, “Ointments containing FK-506 or derivatives thereof” (priority 1990, dated 1995).

Conditions: dissolved in ethanol (EP-A-315978)

With `C=CCC1C=C(C)CC(C)CC(OC)C2OC(O)(C(=O)C(=O)N3CCCCC3C(=O)OC(C(C)=CC3CCC(O)C(OC)C3)C(C)C(O)CC1=O)C(C)CC2OC` (stereo not shown) [FK 506 substance, 17-allyl-1,14-dihydroxy-12-[2-(4-hydroxy-3-methoxycyclohexyl)-1-methylvinyl]-23,25-dimethoxy-13,19,21,27-tetramethyl-11,28-dioxa-4-azatricyclo[22.3.1.0^4,9]octacos-18-ene-2,3,10,16-tetraone] as the molecule, how does the inflammatory inhibition read?
Its inflammatory inhibition is “effective against inflammatory inhibition”.
